Test results published in PubChem BioAssay (NCI).
Several values for one entry are separate records, joined by “and”; a condition that tells them apart may be missing. Equal values may be shown once.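 Five concentrations, 48 hours, 96-well plates. GI50 is the concentration that inhibits growth by half. TGI: total growth inhibition.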

Columns and labels:
Assay in all cases: NCI anticancer screen, dose series, 48 h
OVCAR-3 ovarian = tested on: OVCAR-3 ovarian
PC-3 prostate = tested on: PC-3 prostate
MDA-MB-231 breast = tested on: MDA-MB-231 breast
SK-MEL-5 melanoma = tested on: SK-MEL-5 melanoma
SF-539 CNS = tested on: SF-539 CNS
IGROV1 ovarian = tested on: IGROV1 ovarian
MCF7 breast = tested on: MCF7 breast
SK-MEL-2 melanoma = tested on: SK-MEL-2 melanoma
KM12 colon = tested on: KM12 colon
SK-OV-3 ovarian = tested on: SK-OV-3 ovarian

| Compound | GI50 (OVCAR-3 ovarian) | TGI (OVCAR-3 ovarian) | GI50 (PC-3 prostate) | TGI (PC-3 prostate) | GI50 (MDA-MB-231 breast) | TGI (MDA-MB-231 breast) | GI50 (SK-MEL-5 melanoma) | TGI (SK-MEL-5 melanoma) | GI50 (SF-539 CNS) | TGI (SF-539 CNS) | GI50 (IGROV1 ovarian) | TGI (IGROV1 ovarian) | GI50 (MCF7 breast) [µM] | TGI (MCF7 breast) [µM] | GI50 (SK-MEL-2 melanoma) [µM] | TGI (SK-MEL-2 melanoma) | GI50 (KM12 colon) | TGI (KM12 colon) | GI50 (SK-OV-3 ovarian) | TGI (SK-OV-3 ovarian) |
| --- | --- | --- | --- | --- | --- | --- | --- | --- | --- | --- | --- | --- | --- | --- | --- | --- | --- | --- | --- | --- |
| CC1=C[C@H]2c3c(c(O)c(O)c4oc5cc(O)cc(O)c5c(=O)c34)[C@H](c3cc(O)c(O)c4oc5cc(O)cc(O)c5c(=O)c34)[C@H]2C(C)(C)C1 | 1.7 µM and 2 µM | 4.02 µM and 7.54 µM | 1.96 µM and 1.8 µM | 7.41 µM and 5.46 µM | 1.46 µM and 1.83 µM | 4.01 µM and 5.62 µM | 1.53 µM and 1.43 µM | 2.89 µM and 2.84 µM | 1.16 µM and 1.69 µM | 3.89 µM and 4.79 µM | 1.36 µM and 2.05 µM | 5.26 µM and 17 µM | 0.725 | 3.88 | 2.41 | 5.17 µM and 6.41 µM | 1.04 µM and 1.51 µM | 3.02 µM and 3.57 µM | 2.05 µM and 2.27 µM | 5.13 µM and 8.28 µM |
| CCOC(=O)CNC(SC)=C(C#N)C#N |  | > 100 µM |  |  |  |  |  | > 100 µM |  | > 100 µM |  | > 100 µM |  |  |  |  |  | > 100 µM |  | > 100 µM |
| CC1(C)CCc2cc3c(cc2O1)OC(C)(C)C1c2c(ccc4c2CCC(C)(C)O4)OC31 (stereo not drawn) |  | > 100 µM |  |  |  |  |  | > 100 µM |  | > 100 µM |  | > 100 µM |  |  |  | > 100 µM |  | > 100 µM |  | > 100 µM |
| Cc1cc(C)cc(Nc2nccc(-c3c(-c4ccc(F)cc4)ncn3C3CCNCC3)n2)c1 | 1.39 µM | 2.87 µM | 1.56 µM | 3.01 µM | 1.5 µM | 3.09 µM | 1.75 µM | 3.31 µM | 1.75 µM | 3.25 µM | 0.312 µM | 1.67 µM | 0.566 | 2.09 | 2.04 | 4.09 µM | 1.74 µM | 3.57 µM | 2.13 µM | 5.09 µM |
| COc1ccc(S(=O)(=O)O)cc1NS(=O)(=O)c1ccc(C)cc1 |  | > 100 µM |  | > 100 µM |  | > 100 µM |  | > 100 µM |  | > 100 µM |  | > 100 µM |  | > 100 |  | > 100 µM |  | > 100 µM |  | > 100 µM |
| COc1cc(Nc2ncc3c(n2)-c2ccc(Cl)cc2C(c2c(F)cccc2OC)=NC3)ccc1C(=O)O | 7.33 µM | 34.4 µM | 7.87 µM | 70.4 µM | 3.07 µM | > 100 µM | 12.3 µM | 29.1 µM | 0.503 µM | 20 µM | 2.19 µM | 19.3 µM | 0.0469 | > 100 | 13.4 | 38 µM | 0.26 µM | > 92.9 µM | 10.6 µM | 44 µM |
| COc1cc(C/C=C/c2ccccc2)c(OC)cc1O |  | 51.1 µM |  | 67.2 µM |  | 52.9 µM |  | 62.3 µM |  | 37.6 µM |  | 37.2 µM |  |  |  | 52.3 µM |  | 30.7 µM |  |  |
| Cn1cc2ccccc2c1-c1nc(F)nc(Oc2ccc3c(c2)CC[C@@H]2C3CC[C@]3(C)C(O)CCC23)n1 (stereo partly drawn) |  | 31.8 µM |  |  |  |  |  | 30.2 µM |  | 32.7 µM |  | 30.8 µM |  |  |  | 36.1 µM |  |  |  | 36.3 µM |
| CCC[CH2][Sn]1([CH2]CCC)[O]C(=O)C[S]1 | 1.57 µM | 3.03 µM |  |  |  |  | 1.44 µM | 3 µM | 1.64 µM | 3.43 µM | 1.86 µM | 4.16 µM |  |  | 0.975 | 2.33 µM | 2.6 µM | 10.9 µM | 4.63 µM | 14 µM |
| COc1cc(C(=O)/C=C/c2c(-c3ccc(F)cc3)nc3sccn23)cc(OC)c1OC | 2.27 µM | 6.81 µM | 3.57 µM | > 46.2 µM | 2.34 µM | > 29.8 µM | 1.28 µM | 2.81 µM | 1.59 µM | 3.62 µM | 3.49 µM |  | 1.9 | 7.88 | 5.59 | > 27.9 µM | 2.24 µM | 6.27 µM | 2.68 µM | 11.9 µM |
| CC(C)C(/C=C/c1ccccc1)=N\NC(=O)N/N=C(/C=C/c1ccccc1)C(C)C |  |  |  |  |  |  |  | 53.7 µM |  | > 100 µM |  | > 100 µM |  |  |  | 52 µM |  | > 100 µM |  | > 100 µM |
| C/C1=C\CC[C@@](C)(O)[C@H]2C[C@H](CC/C(C)=C/CC1)C1(CC1)C(=O)O2 | 25.2 µM | 84.7 µM | 14.8 µM | 32.4 µM | 17.5 µM | 35.1 µM | 18.6 µM | 35.1 µM | 17.1 µM | 33.5 µM | 18.9 µM | 39.7 µM | 21 | 57.4 | 39.1 | > 100 µM | 37.2 µM | > 100 µM | > 100 µM | > 100 µM |
| COc1ccc(CNc2nc3ccccc3nc2-c2cccs2)cc1OC |  | > 100 µM |  |  |  |  |  |  |  | > 100 µM |  |  |  |  |  | > 100 µM |  |  |  |  |
| O=C1C2Cc3ccccc3CN2C(=O)N1CN1CCN(CN2C(=O)C3Cc4ccccc4CN3C2=O)CC1 (stereo not drawn) |  | > 100 µM |  |  |  |  |  | > 100 µM |  | > 100 µM |  | > 100 µM |  |  |  | > 100 µM |  | > 100 µM |  | > 100 µM |
| CC(=O)Nc1ccc(-c2nnc(SCC(=O)Nc3ccccc3[N+](=O)[O-])o2)cc1 |  | > 100 µM |  |  |  |  |  | > 100 µM |  | > 100 µM |  | > 100 µM |  |  |  | > 100 µM |  | > 100 µM |  | > 100 µM |
| O=C1c2cnccc2Cc2cccc3c2N1c1ccccc1S3 |  | 44.5 µM |  |  |  |  |  | 39 µM |  | 43.3 µM |  | 98.9 µM |  |  |  | 32.5 µM |  | 66 µM |  |  |
| CC(C)O/C=C1\C(=O)C2(SCCS2)[C@H]2CCCC[C@@H]12 |  |  |  |  |  |  |  | > 100 µM |  | > 100 µM |  | > 100 µM |  |  |  | > 100 µM |  | > 100 µM |  | > 100 µM |
| COc1cc2ccc(CC#N)cc2cc1OC |  |  |  |  |  |  |  | > 100 µM |  | > 100 µM |  |  |  |  |  | > 100 µM |  | > 100 µM |  | > 100 µM |
| O=C1c2c(c3c4ccccc4n4c3c3c2c2ccccc2n3C/C=C\C4)C(=O)N1Cc1ccccc1 |  | > 100 µM |  |  |  |  |  | > 100 µM |  | > 100 µM |  | > 100 µM |  |  |  |  |  | > 100 µM |  | > 100 µM |
| O=C(N/C(=C\c1ccc([N+](=O)[O-])cc1)c1nc2[nH]c(=S)[nH]c(=O)c2[nH]1)c1ccccc1 |  | > 100 µM |  |  |  |  |  | > 100 µM |  | > 100 µM |  | > 100 µM |  |  |  | > 100 µM |  | > 100 µM |  | > 100 µM |
